Measurements as given in PubChem BioAssay AID1919016 (Molecular Pharmacology Branch, DTP, NCI, 2023).

Tested on: NCI-H196 complex spheroid growth, percent test/control
Assay: Anticancer human tumor NCI-H196 cell line growth inhibition [AhR];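 further: seven days of drug exposure starting three days after plating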;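 on viability, T/C: 100% = DMSO vehicle control wells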
Details: for IC50: curve of first compound; for viability, T/C: stronger effect = lower value
Outline: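 Complex tumor spheroids co-cultured with HUVEC and human MSC stroma; AhR antagonists tested in combination with standard-of-care and investigational agents. Top concentration at or near clinical Cmax (else 10 microM), half-log dilutions; growth expressed as percent test/control.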

[1] = second compound 0.1 µM, first compound 0.0316 µM
[2] = second compound 0.1 µM, first compound 0.1 µM
[3] = second compound 0.1 µM, first compound 0.316 µM
[4] = second compound 0.1 µM, first compound 1 µM
[5] = second compound 0.1 µM, first compound 3.16 µM
[6] = second compound 0.1 µM, first compound 10 µM
[7] = second compound 0.316 µM, first compound 0.0316 µM
[8] = second compound 0.316 µM, first compound 0.1 µM
[9] = second compound 0.316 µM, first compound 0.316 µM
[10] = second compound 0.316 µM, first compound 1 µM
[11] = second compound 0.316 µM, first compound 3.16 µM
[12] = second compound 0.316 µM, first compound 10 µM
[13] = second compound 1 µM, first compound 0.0316 µM
[14] = second compound 1 µM, first compound 0.1 µM
[15] = second compound 1 µM, first compound 0.316 µM
[16] = second compound 1 µM, first compound 1 µM
[17] = second compound 1 µM, first compound 3.16 µM
[18] = second compound 1 µM, first compound 10 µM
[19] = second compound 3.16 µM, first compound 0.0316 µM
[20] = second compound 3.16 µM, first compound 0.1 µM
[21] = second compound 3.16 µM, first compound 0.316 µM
[22] = second compound 3.16 µM, first compound 1 µM
[23] = second compound 3.16 µM, first compound 3.16 µM
[24] = second compound 3.16 µM, first compound 10 µM
[25] = second compound 10 µM, first compound 0.0316 µM
[26] = second compound 10 µM, first compound 0.1 µM
[27] = second compound 10 µM, first compound 0.316 µM
[28] = second compound 10 µM, first compound 1 µM
[29] = second compound 10 µM, first compound 3.16 µM
[30] = second compound 10 µM, first compound 10 µM

Nc1ccccc1NC(=O)c1ccc(CNC(=O)OCc2cccnc2)cc1 + Cc1cncc(-c2nc(NCCc3c[nH]c4ccccc34)c3ncn(C(C)C)c3n2)c1
IC50 (second compound 0.1 µM): 478 nM | IC50 (second compound 0.316 µM): 614 nM | IC50 (second compound 1 µM): 540 nM | IC50 (second compound 3.16 µM): 651 nM | IC50 (second compound 10 µM): 591 nM | viability, T/C [1]: 87.4% | viability, T/C [2]: 74.2% | viability, T/C [3]: 57.6% | viability, T/C [4]: 38.3% | viability, T/C [5]: 12.1% | viability, T/C [6]: 0.58% | viability, T/C [7]: 75.1% | viability, T/C [8]: 78.7% | viability, T/C [9]: 60% | viability, T/C [10]: 42% | viability, T/C [11]: 13% | viability, T/C [12]: 0.65% | viability, T/C [13]: 96.3% | viability, T/C [14]: 81.4% | viability, T/C [15]: 67.4% | viability, T/C [16]: 31.9% | viability, T/C [17]: 11.4% | viability, T/C [18]: 0.72% | viability, T/C [19]: 87.1% | viability, T/C [20]: 85.2% | viability, T/C [21]: 69.8% | viability, T/C [22]: 38.3% | viability, T/C [23]: 9.78% | viability, T/C [24]: 1.22% | viability, T/C [25]: 82.2% | viability, T/C [26]: 85.5% | viability, T/C [27]: 63.5% | viability, T/C [28]: 38.1% | viability, T/C [29]: 8.35% | viability, T/C [30]: 1.86%

O=C(C=Cc1cccc(S(=O)(=O)Nc2ccccc2)c1)NO + Cc1cncc(-c2nc(NCCc3c[nH]c4ccccc34)c3ncn(C(C)C)c3n2)c1
IC50 (second compound 0.1 µM): 1300 nM | IC50 (second compound 0.316 µM): 1360 nM | IC50 (second compound 1 µM): 1120 nM | IC50 (second compound 3.16 µM): 1290 nM | IC50 (second compound 10 µM): 1380 nM | viability, T/C [1]: 102% | viability, T/C [2]: 102% | viability, T/C [3]: 79.6% | viability, T/C [4]: 63.6% | viability, T/C [5]: 18.5% | viability, T/C [6]: 0.47% | viability, T/C [7]: 103% | viability, T/C [8]: 103% | viability, T/C [9]: 96.2% | viability, T/C [10]: 64.1% | viability, T/C [11]: 12.2% | viability, T/C [12]: 0.53% | viability, T/C [13]: 110% | viability, T/C [14]: 115% | viability, T/C [15]: 110% | viability, T/C [16]: 51.9% | viability, T/C [17]: 18.3% | viability, T/C [18]: 1.69% | viability, T/C [19]: 114% | viability, T/C [20]: 99.5% | viability, T/C [21]: 96.7% | viability, T/C [22]: 55.8% | viability, T/C [23]: 21.7% | viability, T/C [24]: 0.41% | viability, T/C [25]: 89.3% | viability, T/C [26]: 87.8% | viability, T/C [27]: 79.5% | viability, T/C [28]: 64.3% | viability, T/C [29]: 15.7% | viability, T/C [30]: 0.74%

O=C(c1cc(Cc2n[nH]c(=O)c3ccccc23)ccc1F)N1CCN(C(=O)C2CC2)CC1 + Cc1cncc(-c2nc(NCCc3c[nH]c4ccccc34)c3ncn(C(C)C)c3n2)c1
IC50 (second compound 0.1 µM): > 10000 nM | IC50 (second compound 0.316 µM): > 10000 nM | IC50 (second compound 1 µM): > 10000 nM | IC50 (second compound 3.16 µM): > 10000 nM | IC50 (second compound 10 µM): > 10000 nM | viability, T/C [1]: 103% | viability, T/C [2]: 102% | viability, T/C [3]: 96.1% | viability, T/C [4]: 96% | viability, T/C [5]: 98.8% | viability, T/C [6]: 87.4% | viability, T/C [7]: 101% | viability, T/C [8]: 101% | viability, T/C [9]: 103% | viability, T/C [10]: 94% | viability, T/C [11]: 107% | viability, T/C [12]: 91.2% | viability, T/C [13]: 105% | viability, T/C [14]: 90.5% | viability, T/C [15]: 105% | viability, T/C [16]: 93.4% | viability, T/C [17]: 101% | viability, T/C [18]: 97.7% | viability, T/C [19]: 113% | viability, T/C [20]: 106% | viability, T/C [21]: 98.1% | viability, T/C [22]: 99.7% | viability, T/C [23]: 103% | viability, T/C [24]: 99.6% | viability, T/C [25]: 81.9% | viability, T/C [26]: 91.7% | viability, T/C [27]: 87.4% | viability, T/C [28]: 88.7% | viability, T/C [29]: 86.9% | viability, T/C [30]: 93.8%
